Test results taken from US9149475B2, “Protein kinase C inhibitors and uses thereof” (Rigel Pharmaceuticals, Inc., priority 2009, dated 2015).

Tested on: Human primary T cells
Assay: IL-2 ELISA, human primary T cell, anti-CD3+CD28+ (whole cell assay)
Assay type: cell-based
Details: Homo sapiens, T-cell, 24 h, human primary T cells stimulated with anti-CD3 + anti-CD28, 24 hours
In short: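 IL-2 secreted over 24 h at 37° C was quantified by ELISA after plate-bound αCD3 (1 μg/ml) and αCD28 (5 μg/ml) stimulation, or PMA (0.5 ng/ml) with ionomycin (0.1 μM) as counter-screen. Cells were IL-2-starved primary human T cells, expanded from volunteer PBMC and exposed to compound for 1 hr beforehand.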

IC50, 500 to 1000 nM:
CC1(C)CC(Nc2nc(Nc3ccc(OC4CCN(S(C)(=O)=O)CC4)c(OC(F)F)c3)ncc2F)CC(C)(C)N1 [III-21, N2-(3-(difluoromethoxy)-4-(1-(methylsulfonyl)piperidin-4-yloxy)phenyl)-5-fluoro-N4-(2,2,6,6-tetramethylpiperidin-4-yl)pyrimidine-2,4-diamine]
CN1C(C)(C)CC(Nc2nc(Nc3ccc(OC4CCOCC4)c(F)c3)ncc2F)CC1(C)C [III-24, 5-fluoro-N2-(3-fluoro-4-(tetrahydro-2H-pyran-4-yloxy)phenyl)-N4-(1,2,2,6,6-pentamethylpiperidin-4-yl)pyrimidine-2,4-diamine]
CN1C(C)(C)CC(Nc2nc(Nc3cc(F)c(OC4CCOCC4)c(F)c3)ncc2F)CC1(C)C [III-25, N2-(3,5-difluoro-4-(tetrahydro-2H-pyran-4-yloxy)phenyl)-5-fluoro-N4-(1,2,2,6,6-pentamethylpiperidin-4-yl)pyrimidine-2,4-diamine]
CC1(C)CC(Nc2nc(Nc3cc(F)c(OC4CCOCC4)c(F)c3)ncc2F)CC(C)(C)N1 [III-26, N2-(3,5-difluoro-4-(tetrahydro-2H-pyran-4-yloxy)phenyl)-5-fluoro-N4-(2,2,6,6-tetramethylpiperidin-4-yl)pyrimidine-2,4-diamine]
CC1(C)CC(Nc2nc(Nc3ccc(OC4CCN(CCO)CC4)c(OC(F)F)c3)ncc2F)CC(C)(C)N1 [III-38, 2-(4-(2-(Difluoromethoxy)-4-(5-fluoro-4-(2,2,6,6-tetramethylpiperidin-4-ylamino)pyrimidin-2-ylamino)phenoxy)piperidin-1-yl)ethanol]
CC(C)N1CC(Oc2ccc(Nc3ncc(F)c(NC4CC(C)(C)NC(C)(C)C4)n3)cc2OC(F)F)C1 [III-39, N2-(3-(Difluoromethoxy)-4-(1-isopropylazetidin-3-yloxy)phenyl)-5-fluoro-N4-(2,2,6,6-tetramethylpiperidin-4-yl)pyrimidine-2,4-diamine]
CC(=O)N1CCCC(Oc2ccc(Nc3ncc(F)c(NC4CC(C)(C)NC(C)(C)C4)n3)cc2OC(F)F)CC1 (centres unmarked) [III-42, 1-(4-(2-(difluoromethoxy)-4-(5-fluoro-4-(2,2,6,6-tetramethylpiperidin-4-ylamino)pyrimidin-2-ylamino)phenoxy)azepan-1-yl)ethanone]
CC(=O)N1CCC(Oc2ccc(Nc3ncc(F)c(NC4CC(C)(C)NC(C)(C)C4)n3)cc2OC(F)F)CC1 [III-44, 1-(4-(2-(difluoromethoxy)-4-(5-fluoro-4-(2,2,6,6-tetramethylpiperidin-4-ylamino)pyrimidin-2-ylamino)phenoxy)piperidin-1-yl)ethanone]
CC1(C)CC(Nc2nc(Nc3ccc(OC(C)(C)CCN4CCCC4)c(F)c3)ncc2F)CC(C)(C)N1 [III-46, 5-fluoro-N2-(3-fluoro-4-(2-methyl-4-(pyrrolidin-1-yl)butan-2-yloxy)phenyl)-N4-(2,2,6,6-tetramethylpiperidin-4-yl)pyrimidine-2,4-diamine]

IC50, < 250 nM:
CC(C)N1CCC(Oc2ccc(Nc3ncc(F)c(NC4CC(C)(C)N(C)C(C)(C)C4)n3)cc2F)CC1 [III-18, 5-fluoro-N2-(3-fluoro-4-(1-isopropylpiperidin-4-yloxy)phenyl)-N4-(1,2,2,6,6-pentamethylpiperidin-4-yl)pyrimidine-2,4-diamine]
CN1C(C)(C)CC(Nc2nc(Nc3ccc(OC4CCOCC4)c(OC(F)F)c3)ncc2F)CC1(C)C [III-22, N2-(3-(difluoromethoxy)-4-(tetrahydro-2H-pyran-4-yloxy)phenyl)-5-fluoro-N4-(1,2,2,6,6-pentamethylpiperidin-4-yl)pyrimidine-2,4-diamine]
CN1C(C)(C)CC(Nc2nc(Nc3ccc(OC4CCN(CCO)CC4)c(OC(F)F)c3)ncc2F)CC1(C)C [III-37, 2-(4-(2-(Difluoromethoxy)-4-(5-fluoro-4-(1,2,2,6,6-pentamethylpiperidin-4-ylamino)pyrimidin-2-ylamino)phenoxy)piperidin-1-yl)ethanol]
CC(C)N1CCCC(Oc2ccc(Nc3ncc(F)c(NC4CC(C)(C)N(C)C(C)(C)C4)n3)cc2OC(F)F)CC1 (centres unmarked) [III-41, N2-(3-(difluoromethoxy)-4-(1-isopropylazepan-4-yloxy)phenyl)-5-fluoro-N4-(1,2,2,6,6-pentamethylpiperidin-4-yl)pyrimidine-2,4-diamine]
CC(=O)N1CCCC(Oc2ccc(Nc3ncc(F)c(NC4CC(C)(C)N(C)C(C)(C)C4)n3)cc2OC(F)F)CC1 (centres unmarked) [III-43, 1-(4-(2-(difluoromethoxy)-4-(5-fluoro-4-(1,2,2,6,6-pentamethylpiperidin-4-ylamino)pyrimidin-2-ylamino)phenoxy)azepan-1-yl)ethanone]

IC50, > 1000 nM:
CCNC(=O)N1CCC(Oc2ccc(Nc3ncc(F)c(NC4CC(C)(C)N(C)C(C)(C)C4)n3)cc2F)CC1 [III-16, N-ethyl-4-(2-fluoro-4-(5-fluoro-4-(1,2,2,6,6-pentamethylpiperidin-4-ylamino)pyrimidin-2-ylamino)phenoxy)piperidine-1-carboxamide]
CCNC(=O)N1CCC(Oc2ccc(Nc3ncc(F)c(NC4CC(C)(C)NC(C)(C)C4)n3)cc2F)CC1 [III-17, N-ethyl-4-(2-fluoro-4-(5-fluoro-4-(2,2,6,6-tetramethylpiperidin-4-ylamino)pyrimidin-2-ylamino)phenoxy)piperidine-1-carboxamide]
CC1(C)CC(Nc2nc(Nc3ccc(OC4CCNCC4)c(OC(F)F)c3)ncc2F)CC(C)(C)N1 [III-28, N2-(3-(difluoromethoxy)-4-(piperidin-4-yloxy)phenyl)-5-fluoro-N4-(2,2,6,6-tetramethylpiperidin-4-yl)pyrimidine-2,4-diamine]
CN1C(C)(C)CC(Nc2nc(Nc3ccc(OC4CCS(=O)(=O)CC4)c(F)c3)ncc2F)CC1(C)C [III-29, N2-[4-(1,1-Dioxo-hexahydro-1λ6-thiopyran-4-yloxy)-3-fluoro-phenyl]-5-fluoro-N4-(1,2,2,6,6-pentamethyl-piperidin-4-yl)-pyrimidine-2,4-diamine]
CC1(C)CC(Nc2nc(Nc3ccc(OC4CCS(=O)(=O)CC4)c(OC(F)F)c3)ncc2F)CC(C)(C)N1 [III-32, N2-[3-Difluoromethoxy-4-(1,1-dioxo-hexahydro-1λ6-thiopyran-4-yloxy)-phenyl]-5-fluoro-N4-(2,2,6,6-tetramethyl-piperidin-4-yl)-pyrimidine-2,4-diamine]
CN1C(C)(C)CC(Nc2nc(Nc3ccc(OC4CCN(CC(N)=O)CC4)c(F)c3)ncc2F)CC1(C)C [III-33, 2-(4-(2-Fluoro-4-(5-fluoro-4-(1,2,2,6,6-pentamethylpiperidin-4-ylamino)pyrimidin-2-ylamino)phenoxy)piperidin-1-yl)acetamide]
CC1(C)CC(Nc2nc(Nc3ccc(OC4CCN(CC(N)=O)CC4)c(F)c3)ncc2F)CC(C)(C)N1 [III-34, 2-(4-(2-Fluoro-4-(5-fluoro-4-(2,2,6,6-tetramethylpiperidin-4-ylamino)pyrimidin-2-ylamino)phenoxy)piperidin-1-yl)acetamide]
CC1(C)CC(Nc2nc(Nc3ccc(OC4CCN(CC(N)=O)CC4)c(OC(F)F)c3)ncc2F)CC(C)(C)N1 [III-36, 2-(4-(2-(Difluoromethoxy)-4-(5-fluoro-4-(2,2,6,6-tetramethylpiperidin-4-ylamino)pyrimidin-2-ylamino)phenoxy)piperidin-1-yl)acetamide]

IC50, 250 to 500 nM:
CC(C)N1CCC(Oc2ccc(Nc3ncc(F)c(NC4CC(C)(C)NC(C)(C)C4)n3)cc2F)CC1 [III-19, 5-fluoro-N2-(3-fluoro-4-(1-isopropylpiperidin-4-yloxy)phenyl)-N4-(2,2,6,6-tetramethylpiperidin-4-yl)pyrimidine-2,4-diamine]
CN1C(C)(C)CC(Nc2nc(Nc3ccc(OC4CCN(S(C)(=O)=O)CC4)c(OC(F)F)c3)ncc2F)CC1(C)C [III-20, N2-(3-(difluoromethoxy)-4-(1-(methylsulfonyl)piperidin-4-yloxy)phenyl)-5-fluoro-N4-(1,2,2,6,6-pentamethylpiperidin-4-yl)pyrimidine-2,4-diamine]
CC1(C)CC(Nc2nc(Nc3ccc(OC4CCOCC4)c(OC(F)F)c3)ncc2F)CC(C)(C)N1 [III-23, N2-(3-(difluoromethoxy)-4-(tetrahydro-2H-pyran-4-yloxy)phenyl)-5-fluoro-N4-(2,2,6,6-tetramethylpiperidin-4-yl)pyrimidine-2,4-diamine]
CN1C(C)(C)CC(Nc2nc(Nc3ccc(OC4CCNCC4)c(OC(F)F)c3)ncc2F)CC1(C)C [III-27, N2-(3-(difluoromethoxy)-4-(piperidin-4-yloxy)phenyl)-5-fluoro-N4-(1,2,2,6,6-pentamethylpiperidin-4-yl)pyrimidine-2,4-diamine]
CN1C(C)(C)CC(Nc2nc(Nc3ccc(OC4CCN(CC(N)=O)CC4)c(OC(F)F)c3)ncc2F)CC1(C)C [III-35, 2-(4-(2-(Difluoromethoxy)-4-(5-fluoro-4-(1,2,2,6,6-pentamethylpiperidin-4-ylamino)pyrimidin-2-ylamino)phenoxy)piperidin-1-yl)acetamide]
CC(C)N1CCCC(Oc2ccc(Nc3ncc(F)c(NC4CC(C)(C)NC(C)(C)C4)n3)cc2OC(F)F)CC1 (centres unmarked) [III-40, N2-(3-(difluoromethoxy)-4-(1-isopropylazepan-4-yloxy)phenyl)-5-fluoro-N4-(2,2,6,6-tetramethylpiperidin-4-yl)pyrimidine-2,4-diamine]
CC(=O)N1CCC(Oc2ccc(Nc3ncc(F)c(NC4CC(C)(C)N(C)C(C)(C)C4)n3)cc2OC(F)F)CC1 [III-45, 1-(4-(2-(difluoromethoxy)-4-(5-fluoro-4-(1,2,2,6,6-pentamethylpiperidin-4-ylamino)pyrimidin-2-ylamino)phenoxy)piperidin-1-yl)ethanone]
